Results published in publication PMC12163684, “Gunacins: Novel Benzo[g]chromene Derivatives from the Fungus Exobasidium sp. and Their Potent Anti-Leishmania and Trypanosoma Activities” (ACS Omega, 2025).
In brackets after ≈: the same amount, converted by molar mass.

Legend:
[1] = tested on: RAT2 fibroblast cell line; experiment: Cytotoxicity on proliferating cells, crystal violet assay, OD590; assay type: cell-based; settings: Rat2, 24 h, 24 h treatment, read-out: EC50 ± SEM RAT2
Protocol: (§1) MDCK and RAT cells were cultured in DMEM with 10% FBS at 37 °C in a 5% CO2 atmosphere as described previously. , To assess the toxic effects of the compounds on proliferating cells, cells were seeded in 24-well plates for 24 h to reach ∼15% confluence, and cells were treated in triplicate with increasing concentrations of the isolated compounds for an additional 24 h. Cells were washed with 1× PBS, fixed in staining solution (0.5% crystal violet, 20% methanol) for 10 min, and gently washed five times in 1× PBS. The fixed cells were then dissolved in lysis solution (0.1 M sodium citrate, 25% ethanol, pH 4.2) for 30 min, transferred to a 96-well plate in H2O, and the OD^590 was determined. EC50 values were determined using GraphPad Prism software and the dose–response fit equation. The EC50 values were determined from two independent experiments. Additionally, the impact of the isolated substances on the morphology of the HeLa adenocarcinoma cell line and primary human skin fibroblasts was examined by using fluorescence microscopy. Cells were cultured in DME medium supplemented with 10% FCS (Gibco, Invitrogen, Carlsbad, USA) on glass coverslips in 24-well plates until reaching approximately 50% confluence. The cells were treated with varying concentrations of isolated compounds dissolved in DMSO. Wells containing DMEM with DMSO served as the negative control. After 24 h cultivation, the cells were incubated with MitoTracker Red CMXRos (10 min) to label mitochondria, then fixed with 3.7% paraformaldehyde in PBS (20 min, room temperature), permeabilized with 0.1% Triton X-100 in PBS, and blocked with 1% BSA in PBS. The cells were then stained with Phalloidin-Alexa Fluor488 conjugate. All fluorescence reagents were purchased from Molecular Probes, Invitrogen, Carlsbad, CA, USA. Nuclei were stained with Fluoroshield DAPI (Sigma-Aldrich), and cells were examined using an IX71 microscope equipped with a DP70 camera and a 40× objective. Assays were performed at concentrations of 5, 25, 50, 100, and 125 μM.

[2] = tested on: Madin–Darby canine kidney (MDCK) epithelial cell line; experiment: as above; assay type: cell-based; settings: Canis lupus familiaris, 24 h treatment, read-out: EC50 ± SEM MDCK
Protocol: as §1

E. coli ATCC 3988 = experiment: Minimum inhibitory concentration (MIC) testing, serial binary dilution in 96-well plates; assay type: cell-based; settings: Escherichia coli, ATCC3988; 24 h in the dark; lowest concentration with no live microorganisms
Protocol: (§2) Minimum inhibitory concentration (MIC) testing of the extracts was performed using 96-well polypropylene plates against four different microorganisms: the Gram-positive bacterium K. rhizophila ATCC 9341, the Gram-negative bacterium E. coli ATCC 3988, and the yeasts C. albicans CCM 8215 and C. neoformans CCF 1081.
(§3) A working inoculum of each microorganism was prepared as follows: for E. coli and K. rhizophila, the inoculum was grown in LB medium (LB Broth, 25 g/L, incubated at 36 °C); for C. albicans and C. neoformans, YM6.3 medium (maltose extract 10 g, glucose 4 g, yeast extract 4 g per 1 L distilled water, incubated at 24 °C) with a cell concentration of approximately 5 × 10^5 cells/mL for all microorganisms was used.
(§4) Chloramphenicol served as a positive control for bacteria, while cycloheximide was used as a positive control for fungi. The gradient of the test substances was established by serial binary dilution across the wells. The MIC was determined by identifying the lowest concentration at which no live microorganisms were present. Cultivation was performed in the dark for 24 h.

K. rhizophila ATCC 9341 = experiment: as above; assay type: cell-based; settings: Kocuria rhizophila, ATCC9341; 24 h in the dark; lowest concentration with no live microorganisms
Protocol: as §2, §3, §4

[3] = tested on: L. mexicana (MNYC/BZ/1962/M379) promastigote; experiment: Anti-Leishmania activity, AB assay, axenic promastigotes; assay type: cell-based
Protocol: (§5) Promastigote stages of L. mexicana (MNYC/BZ/1962/M379), a generous gift from Vyacheslav Yurchenko, were cultured in M199 medium pH 7.4 supplemented with 2 μg/mL biopterin, 2 μg/mL hemin, 25 mM HEPES, 100 U/mL penicillin/streptomycin, and 10% heat-inactivated FBS (BioSera) pH 7.4 at 25 °C. The amastigotes were differentiated in vitro from late log/stationary promastigote cultures and cultivated in Schneider’s Drosophila Medium (SIM) at pH 5.5, supplemented with 1.5 μg/mL hemin, 100 U/mL penicillin/streptomycin, and 20% heat-inactivated FBS (BioSera) at pH 5.5, at 32 °C, and 5% CO2. Following a three-day period, the promastigotes underwent a transformation into amastigotes, which were then maintained in SIM.
(§6) To estimate the EC50, the AB assay, as previously described, was employed. The results are expressed as EC50, representing the dose of the compound required to inhibit cellular growth by 50%. Each EC50 value is the mean ± the standard error of the mean derived from at least three separate experiments, each performed in duplicate.

T. b. evansi AnTat 3/3 = experiment: Anti-trypanosomal activity, resazurin (AB assay), bloodstream form; assay type: cell-based, T. brucei evansi; settings: Trypanosoma brucei, 72 h, axenic, 48 h + 24 h resazurin
Protocol: (§7) The bloodstream forms of T. b. gambiense LiTat 1.3, T. b. brucei 427, and T. b. evansi AnTat 3/3 were grown in HMI-11 medium pH 7.3 supplemented with 36 mM sodium bicarbonate, 100 U/mL penicillin/streptomycin, and 10% fetal bovine serum at 37 °C and 5% CO2. The bloodstream form of Trypanosoma congolense IL3000 (generous gift from Liam Morrison) was cultured in TcBSF-1 medium pH 7.3 supplemented with 26 mM sodium bicarbonate, 25 mM HEPES, 5.5 mM glucose, 1 mM sodium pyruvate, 0.04 mM adenosine, 0.1 mM hypoxanthine, 0.02 mM thymidine, 0.02 mM bathocuproine, 2 mM L-glutamine, 0.2 mM 2-mercaptoethanol, 100 U/ml penicillin/streptomycin, and 20% goat serum New Zealand origin (Gibco) at 34 °C, 5% CO2. The assay for anti-trypanosomal activity was performed using the resazurin sodium salt dye (AB Assay) according to the published protocol in a 96-well plate format. Parasites at a number of 5 × 10^3 per well (T. b. brucei and T. b. gambiense) or 1 × 10^4 per well (T. b. evansi) were incubated with different drug concentrations (2-fold serial dilutions) in a volume of 200 μL of the medium. Medium with 1% DMSO (the highest concentration of the solvent used in the assay) was used to confirm no effect of the solvent on the cell growth. The plates were incubated for 48 h at the appropriate temperature. Then, 20 μL of resazurin sodium salt solution (0.125 mg/mL in 1× PBS, pH 7. 4) was added to each well, and the cells were incubated for another 24 h under the same conditions. The fluorescence signal was quantified using a Tecan Infinite M200 plate reader at excitation and emission wavelengths of 560 and 590 nm, respectively. The EC50 values were calculated using GraphPad Prism 9.5.1 by nonlinear regression with a variable slope. Each EC50 value is the mean ± standard error of the mean of three separate experiments performed in duplicate.

[4] = tested on: L. mexicana (MNYC/BZ/1962/M379) amastigote; experiment: Anti-Leishmania activity, AB assay, axenic amastigotes; assay type: cell-based
Protocol: as §5, §6

[5] = tested on: T. b. gambiense LiTat 1.3; experiment: Anti-trypanosomal activity, resazurin (AB assay), bloodstream form; assay type: cell-based, T. brucei gambiense; settings: Trypanosoma brucei, 72 h, axenic, 48 h + 24 h resazurin
Protocol: as §7

T. b. brucei 427 = experiment: as above; assay type: cell-based; settings: Trypanosoma brucei, 72 h, axenic, 48 h + 24 h resazurin
Protocol: as §7

[6] = tested on: Trypanosoma congolense IL3000; experiment: as above; assay type: cell-based; settings: 72 h, axenic, 48 h + 24 h resazurin, read-out: EC50 T. congolense
Protocol: as §7

C. neoformans CCF 1081 = experiment: Minimum inhibitory concentration (MIC) testing, serial binary dilution in 96-well plates; assay type: cell-based; settings: Cryptococcus neoformans, CCF1081; 24 h in the dark; n.d. = activity not detected; highest tested concentration 66.7 μM
Protocol: as §2, §3, §4

C. albicans CCM 8215 = experiment: as above; assay type: cell-based; settings: Candida albicans, CCM8215; 24 h in the dark; n.d. = activity not detected; highest tested concentration 66.7 μM
Protocol: as §2, §3, §4

Compound | EC50 [1] [µM] | EC50 [2] [µM] | MIC (E. coli ATCC 3988) [µM] | MIC (K. rhizophila ATCC 9341) [µM] | EC50 [3] [µM] | EC50 (T. b. evansi AnTat 3/3) [µM] | EC50 [4] [µM] | EC50 [5] [µM] | EC50 (T. b. brucei 427) [µM] | EC50 [6] [µM] | MIC (C. neoformans CCF 1081) [µM] | MIC (C. albicans CCM 8215) [µM]
COc1cc(O)c2c(c1)C(=O)C1=C(C2=O)[C@@H](O)[C@@H](O)[C@@H](C)O1 [Compound 4, (2R,3R,4R)-3,4,6-trihydroxy-8-methoxy-2-methyl-3,4-dihydro-2H-benzo[g]chromene-5,10-dione] | 5.1 ± 0.1 | 6 ± 1 | – | – | – | – | – | – | – | – | – | –
O=C(N[C@H](CO)[C@H](O)c1ccc([N+](=O)[O-])cc1)C(Cl)Cl [chloramphenicol, reference compound] | – | – | 10.3 (≈ 3.33 µg/mL) | 10.3 (≈ 3.33 µg/mL) | – | – | – | – | – | – | – | –
COc1cc(O)c2c(c1)C(=O)C1=C(C[C@@H](O)[C@@H](C)O1)C2=O [Compound 6, (2R,3R)-3,6-dihydroxy-8-methoxy-2-methyl-3,4-dihydro-2H-benzo[g]chromene-5,10-dione] | 6.7 ± 0.8 | 7.2 ± 0.5 | 2.1 (≈ 0.61 µg/mL) | 8.3 (≈ 2.41 µg/mL) | 25.2 | 2.4 | 5.5 | 8.6 | 5.1 | 9.2 | 66.7 (≈ 19.4 µg/mL) | 66.7 (≈ 19.4 µg/mL)
C[C@@H]1[C@H](O)[C@@H](C)/C=C/C=C/C=C/C=C/C=C/C=C/C=C/[C@H](O[C@@H]2O[C@H](C)[C@@H](O)[C@H](N)[C@@H]2O)C[C@@H]2O[C@](O)(C[C@@H](O)C[C@@H](O)[C@H](O)CC[C@@H](O)C[C@@H](O)CC(=O)O[C@H]1C)C[C@H](O)[C@H]2C(=O)O [amphotericin B, reference compound] | – | – | – | – | 0.1 | – | – | – | – | – | – | –
